Experimental data taken from PubChem BioAssay AID248 (DTP/NCI, 2004).
“And” between values parts separate entries of the source, which are not always exact repeats. Identical values can stand only once. Toxic doses and inconclusive results are not listed. Cut-off read from the data, not from the text of the source: active = T/C of 150% or more; inactive = T/C below 125%.

Tested on: L1210 leukemia ip in BDF1 mice, survival T/C
Assay: NCI In Vivo Anticancer Drug Screen. Data for tumor model L1210 Leukemia (intraperitoneal) in B6D2F1 (BDF1) mice
Details: endpoint: mean survival time, higher = longer survival
Summary of the method: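 Tumor cells were implanted, animals were treated, and survival was followed. The result divides the treated measurement by the vehicle-control measurement.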

[1] = dose: 100.0 mg/kg/injection, schedule: Q01DX001 (ip), vehicle: carboxymethylcellulose (CMC)
[2] = dose: 200.0 mg/kg/injection, schedule: Q01DX001 (ip), vehicle: carboxymethylcellulose (CMC)
[3] = dose: 400.0 mg/kg/injection, schedule: Q01DX001 (ip), vehicle: carboxymethylcellulose (CMC)
[4] = dose: 100.0 mg/kg/injection, schedule: Q01DX001 (ip), vehicle: saline
[5] = dose: 100.0 mg/kg/injection, schedule: Q01DX009 (ip), vehicle: saline
[6] = dose: 200.0 mg/kg/injection, schedule: Q01DX001 (ip), vehicle: saline
[7] = dose: 200.0 mg/kg/injection, schedule: Q01DX009 (ip), vehicle: saline
[8] = dose: 200.0 mg/kg/injection, schedule: Q04DX003 (ip), vehicle: saline
[9] = dose: 100.0 mg/kg/injection, schedule: Q04DX003 (ip), vehicle: saline
[10] = dose: 400.0 mg/kg/injection, schedule: Q04DX003 (ip), vehicle: saline
[11] = dose: 100.0 mg/kg/injection, schedule: Q01DX009 (ip), vehicle: Klucel (hydroxypropylcellulose) (HPC)
[12] = dose: 200.0 mg/kg/injection, schedule: Q01DX009 (ip), vehicle: Klucel (hydroxypropylcellulose) (HPC)
[13] = dose: 400.0 mg/kg/injection, schedule: Q01DX009 (ip), vehicle: Klucel (hydroxypropylcellulose) (HPC)

Measured: T/C

CC1CN(c2nc3ccccc3o2)C(C)CN1c1nc2ccccc2o1 (stereo not given)
inactive: [1] 96 % of control | [2] 94 % of control | [3] 89 % of control

CC1([N+](=O)[O-])COP(=O)(Nc2cccc(Cl)c2)OC1 (stereo not given)
inactive: [1] 95 % of control | [2] 95 % of control | [3] 101 % of control

CCc1ccccc1N1CCN(C(=O)c2cc(OC)c(OC)c(OC)c2)CC1
inactive: dose: 25.0 mg/kg/injection, schedule: Q01DX009 (ip), vehicle: saline 100 % of control | dose: 50.0 mg/kg/injection, schedule: Q01DX009 (ip), vehicle: saline 102 % of control and 105 % of control | dose: 50.0 mg/kg/injection, schedule: Q01DX Z (ip), vehicle: carboxymethylcellulose (CMC) 104 % of control | dose: 50.0 mg/kg/injection, schedule: Q04DX003 (ip), vehicle: acetone 98 % of control | dose: 50.0 mg/kg/injection, schedule: Q04DX003 (ip), vehicle: saline 94 % of control | dose: 74.0 mg/kg/injection, schedule: Q01DX009 (ip), vehicle: saline 100 % of control | dose: 74.0 mg/kg/injection, schedule: Q01DX Z (ip), vehicle: carboxymethylcellulose (CMC) 107 % of control | dose: 74.0 mg/kg/injection, schedule: Q04DX003 (ip), vehicle: saline 92 % of control | [4] 100 % of control | [5] 114 % of control | dose: 100.0 mg/kg/injection, schedule: Q04DX003 (ip), vehicle: acetone 97 % of control | dose: 112.0 mg/kg/injection, schedule: Q01DX009 (ip), vehicle: saline 97 % of control | dose: 112.0 mg/kg/injection, schedule: Q01DX Z (ip), vehicle: carboxymethylcellulose (CMC) 102 % of control | dose: 112.0 mg/kg/injection, schedule: Q04DX003 (ip), vehicle: saline 99 % of control | dose: 168.0 mg/kg/injection, schedule: Q01DX009 (ip), vehicle: saline 108 % of control | dose: 168.0 mg/kg/injection, schedule: Q04DX003 (ip), vehicle: saline 97 % of control and 99 % of control | [6] 103 % of control | [7] 100 % of control | [8] 103 % of control | dose: 225.0 mg/kg/injection, schedule: Q01DX009 (ip), vehicle: saline 97 % of control | dose: 250.0 mg/kg/injection, schedule: Q04DX003 (ip), vehicle: saline 103 % of control

Cc1cnc(C(N)=O)c(=O)[nH]1
inactive: [5] 96 % of control | [9] 100 % of control | [7] 96 % of control | [8] 100 % of control | dose: 400.0 mg/kg/injection, schedule: Q01DX009 (ip), vehicle: saline 98 % of control | [10] 97 % of control

CC(=O)c1ccccc1C(C)c1ccc2cccc(F)c2c1 (stereo not given)
inactive: dose: 75.0 mg/kg/injection, schedule: Q01DX001 (ip), vehicle: Klucel (hydroxypropylcellulose) (HPC) 96 % of control | dose: 150.0 mg/kg/injection, schedule: Q01DX001 (ip), vehicle: Klucel (hydroxypropylcellulose) (HPC) 100 % of control | dose: 300.0 mg/kg/injection, schedule: Q01DX001 (ip), vehicle: Klucel (hydroxypropylcellulose) (HPC) 102 % of control

O=C(NP(=O)(N1CC1)N1CC1)OCCCCCCOC(=O)NP(=O)(N1CC1)N1CC1
inactive: [1] 101 % of control | [2] 113 % of control | [3] 108 % of control

CC(C)=CCCC1(C)C=Cc2c(c(C)cc3c2[nH]c2ccccc23)O1 (stereo not given)
inactive: dose: 25.0 mg/kg/injection, schedule: Q04DX002 (ip), vehicle: gum acacia 96 % of control | dose: 50.0 mg/kg/injection, schedule: Q04DX002 (ip), vehicle: gum acacia 89 % of control | dose: 100.0 mg/kg/injection, schedule: Q04DX002 (ip), vehicle: gum acacia 99 % of control

C[n+]1ccccc1
inactive: [4] 94 % of control | [6] 93 % of control | dose: 400.0 mg/kg/injection, schedule: Q01DX001 (ip), vehicle: saline 104 % of control

O=C(c1ccccc1)C1CCCCC1
inactive: dose: 100.0 mg/kg/injection, schedule: Q01DX001 (ip), vehicle: other 111 % of control | [9] 104 % of control | dose: 200.0 mg/kg/injection, schedule: Q01DX001 (ip), vehicle: other 100 % of control | [8] 96 % of control | dose: 400.0 mg/kg/injection, schedule: Q01DX001 (ip), vehicle: other 105 % of control | [10] 96 % of control

O=C(O)CCC1(CCC(=O)O)SCSCS1
inactive: dose: 100.0 mg/kg/injection, schedule: Q04DX003 (ip), vehicle: Klucel (hydroxypropylcellulose) (HPC) 93 % of control | dose: 200.0 mg/kg/injection, schedule: Q04DX003 (ip), vehicle: Klucel (hydroxypropylcellulose) (HPC) 98 % of control | dose: 400.0 mg/kg/injection, schedule: Q04DX003 (ip), vehicle: Klucel (hydroxypropylcellulose) (HPC) 93 % of control

CCCCOC(=O)c1ccc(NC(=O)Nc2c(C)cccc2C)cc1
inactive: dose: 100.0 mg/kg/injection, schedule: Q01DX009 (ip), vehicle: other 98 % of control | dose: 200.0 mg/kg/injection, schedule: Q01DX009 (ip), vehicle: other 89 % of control | dose: 400.0 mg/kg/injection, schedule: Q01DX009 (ip), vehicle: other 89 % of control

CC(C)CNc1ccc(S(=O)(=O)c2ccc(NCC(C)C)c([N+](=O)[O-])c2)cc1[N+](=O)[O-]
inactive: dose: 3.12 mg/kg/injection, schedule: Q01DX009 (ip), vehicle: DMSO 92 % of control | dose: 6.25 mg/kg/injection, schedule: Q01DX009 (ip), vehicle: DMSO 89 % of control | dose: 12.5 mg/kg/injection, schedule: Q01DX009 (ip), vehicle: DMSO 105 % of control | dose: 25.0 mg/kg/injection, schedule: Q01DX005 (ip), vehicle: DMSO 92 % of control | dose: 25.0 mg/kg/injection, schedule: Q01DX009 (ip), vehicle: DMSO 88 % of control | dose: 50.0 mg/kg/injection, schedule: Q01DX005 (ip), vehicle: DMSO 92 % of control | dose: 100.0 mg/kg/injection, schedule: Q01DX005 (ip), vehicle: DMSO 90 % of control | dose: 100.0 mg/kg/injection, schedule: Q04DX002 (ip), vehicle: DMSO 96 % of control | dose: 200.0 mg/kg/injection, schedule: Q04DX002 (ip), vehicle: DMSO 111 % of control | dose: 400.0 mg/kg/injection, schedule: Q04DX002 (ip), vehicle: DMSO 107 % of control

O=C(NNCc1ccccc1)C(O)C(O)C(O)CO (stereo not given)
inactive: dose: 25.0 mg/kg/injection, schedule: Q01DX009 (ip), vehicle: Klucel (hydroxypropylcellulose) (HPC) 93 % of control | dose: 50.0 mg/kg/injection, schedule: Q01DX009 (ip), vehicle: Klucel (hydroxypropylcellulose) (HPC) 96 % of control | [11] 104 % of control | [12] 94 % of control | [13] 103 % of control

Cc1nc(N)[nH]c(=O)c1CCCN=Cc1ccccc1
inactive: [11] 101 % of control | [12] 92 % of control | [13] 95 % of control

Nc1ccccc1C(=O)N/N=C/c1ccc(Cl)cc1Cl
inactive: [11] 89 % of control | dose: 100.0 mg/kg/injection, schedule: Q04DX002 (ip), vehicle: Klucel (hydroxypropylcellulose) (HPC) 95 % of control | [12] 98 % of control | dose: 200.0 mg/kg/injection, schedule: Q04DX002 (ip), vehicle: Klucel (hydroxypropylcellulose) (HPC) 102 % of control | dose: 400.0 mg/kg/injection, schedule: Q04DX002 (ip), vehicle: Klucel (hydroxypropylcellulose) (HPC) 104 % of control
